Reference: patent US4282232A, “Nitroimidazole radiosensitizers for hypoxic tumor cells and compositions thereof” (priority 1979, dated 1981)
Like-named read-outs stand apart in the source and are kept apart here.

Tests used:
[1] = in vivo; settings: mouse, in vivo, ip
Description: (§1) Neurotoxicity in mice was determined using mice of strain BDF1. This was carried out by (1) determining the LD50 of each compound in mice and (2) observing the animals for acute neurotoxic symptoms such as convulsions. The drugs were either solubilized or suspended in normal saline and administered intraperitoneally to groups of 10 mice.

[2] = test system: mice of strain BDF1; assay: in vivo; settings: intraperitoneal, 24 hours observation
Description: as §1

[3] = In vitro cytotoxicity (2 hour exposure); format: cell-based; settings: chinese hamster, v-79-753 b cells; for MNTC at 2 h: read-out: In-vitro Cytotoxicity in cells: Nontoxic up to (concentration); for cytotoxicity at 2 h, 1000 µM: at 1mM
Description: (§2) Asynchronous monolayer cultures of Chinese hamster cells line V-79-753 B were employed in all the experiments. The monolayers were derived from exponentially-growing cultures. Methods of culturing and handling have been reported earlier by Cooke et al, Rad. Res. 65, 152 (1976). The plated cultures were rendered hypoxic in sealed dural containers capable of holding four petri dishes, by purging with nitrogen (oxygen-free grade) for one hour. Irradiation was carried out by using a Cobalt-60 source at a dose rate of approximately 310 rad/min according to the procedure described previously be Cooke et al, supra. A dose of 1395 rad was given to hypoxic cells in glass petri dishes in the presence of a given drug concentration (2000 cells/dish). Cell survival was estimated from unirradiated hypoxic cells exposed to the same drug concentration. Cultures were incubated for 6 days at 37° C. in an atmosphere of 5% CO2; the resulting colonies were fixed in absolute ethanol, stained with methylene blue and counted.
To determine toxicity in vitro, glass petri dishes containing approximately 200 cells/dish were exposed to a range of concentrations of each drug for 2 hours at room temperature (20° C.) in air or in hypoxia. Drug concentrations […] were employed.

[4] = test system: hypoxic tumor cells; settings: cited from earlier work; for selectivity (tumor cells versus normal tissue cells): DNA incorporating drugs; for radiosensitizing activity (in words): in vitro and/or in vivo
[5] = test system: Chinese hamster cells line V-79-753 B; assay: Radiosensitization of hypoxic Chinese hamster cells (Cobalt-60 irradiation, enhancement ratio); format: cell-based; settings: 1395 rad Cobalt-60
Description: as §2

[6] = Redox potential; format: physicochemical
[7] = test system: hypoxic cells (Chinese hamster cells line V-79-753 B); assay: Differential cytotoxicity of hypoxic cells; format: cell-based
Description: as §2
[…] Drug concentrations between 10 μM were employed.

[8] = Toxicity, general statements of the description
[9] = test system: mice; settings: cited from earlier work
[10] = test system: humans; settings: cited from earlier work
[11] = test system: mice of strain BDF1; settings: footnote *: P. W. Sheldon, et al, Br. J. Cancer, 35, 795, 800 (1977); 1440 min; cited from earlier work
[12] = read-out: In-vitro Cytotoxicity in cells: inhibition

O=[N+]([O-])c1nc2ccccc2n1CC[N+]1([O-])CCCCC1 [A, 1-(1'-oxido)piperidinoethyl-2-nitrobenzimidazole]
LD50 at 24 h [1]: ~5000 mg/kg | Convulsions in mice at LD50 doses [2]: None | MNTC at 2 h [3]: ≥ 10 mM

O=[N+]([O-])c1nc2ccccc2n1CCN1CCCCC1 [B, 1-piperidinoethyl-2-nitrobenzimidazole]
Convulsions in mice at LD50 doses [2]: Yes | LD50 in mice [2]: < 1 g | cytotoxicity at 2 h, 1000 µM [3, 12]: 50%

O=c1[nH]c(=O)n([C@H]2C[C@H](O)[C@@H](CO)O2)cc1Br [BUdR, 5-Bromodeoxyuridine]
selectivity (tumor cells versus normal tissue cells) [4]: failed precisely because of their poor selectivity problem

O=[N+]([O-])c1nccn1CC[N+]1([O-])CCCCC1 [C, 1-(1'-oxido)piperidinoethyl-2-nitroimidazole]
Radiosensitization (enhancement ratio at 1mM in chinese hamster cells) [5]: 2.2 | LD50 at 24 h [1]: > 5000 mg/kg | Convulsions in mice at LD50 doses [2]: None | Redox Potential [6]: -0.32 V | Differential cytotoxicity of hypoxic cells ([7]; up to 4 hours): None | MNTC at 2 h [3]: ≥ 20 mM

O=[N+]([O-])c1nccn1CCN1CCCCC1 [D, 1-piperidinoethyl-2-nitroimidazole]
Radiosensitization (enhancement ratio at 1mM in chinese hamster cells) [5]: ~2.1 | LD50 at 24 h [1]: 800 mg/kg | Convulsions in mice at LD50 doses [2]: yes | cytotoxicity at 2 h, 1000 µM [3, 12]: 70%

C[N+]1(CCn2ccnc2[N+](=O)[O-])CCCCC1 [E, 1-(1'-methiodide)-piperidinoethyl-2-nitroimidazole]
LD50 at 24 h [1]: 250 mg/kg | Convulsions in mice at LD50 doses [2]: yes | cytotoxicity at 2 h, 2000 µM ([3]; at 2mM, read-out: In-vitro Cytotoxicity in cells: inhibition): 30% | toxicity (in words) [8]: more toxic than the parent non-quaternized piperidino compound itself

COCC(O)Cn1ccnc1[N+](=O)[O-] (stereo not drawn) [F, Misonidazole]
serious side effects when administered orally ([9]; oral, mice): peripheral neuropathy and convulsions in mice | Redox Potential [6]: -0.389 V | central nervous system (CNS) toxicity ([10]; use in humans): limiting factor for their use in humans | radiosensitizing activity (in words) [4]: effective in vivo | Differential cytotoxicity of hypoxic cells ([7]; exposure time not given): yes

O=c1[nH]c(=O)n([C@H]2C[C@H](O)[C@@H](CO)O2)cc1F [FUdR, 5-Fluorodeoxyuridine]
selectivity (tumor cells versus normal tissue cells) [4]: failed precisely because of their poor selectivity problem

Cc1ncc([N+](=O)[O-])n1CCO [G, Metronidazole]
serious side effects when administered orally ([9]; mouse, in vivo, po): peripheral neuropathy and convulsions in mice | Radiosensitization (enhancement ratio at 1mM in chinese hamster cells) [5]: 1.5 | Redox Potential [6]: -0.486 V | central nervous system (CNS) toxicity ([10]; in vivo): limiting factor for their use in humans | radiosensitizing activity (in words) ([4]; as worded, listed as Metronidazole): active both in vivo and in vitro | radiosensitizing activity (in words) ([4]; as worded, listed as metronidazole): effective in vivo | Differential cytotoxicity of hypoxic cells ([7]; exposure time not given): yes | LD50 in mice [11]: 3.5 g/kg

CN(C)CCC(=O)c1ccc([N+](=O)[O-])cc1.Cl [NDPP, p-nitro-3-dimethylamino propiophenone HCl]
radiosensitizing activity (in words) [4]: appeared promising in vitro
